Measurements: patent publication US8236490B2, “Screening method for compounds that reduce ER stress” (EM Biotecnologia S.A., priority 2007, dated 2012)

Tested on: DGI-TAUP301L cells (ER stress induced by mutant TAU-P301L protein)
Experiment: ER stress reporter (KAR2 UPRE-GFP) screening assay in DGI-TAUP301L yeast cells; fluorescence normalised to cell density
Format: cell-based, Saccharomyces cerevisiae
Conditions: 2% galactose, 2 days at 30° C.
Protocol: Screening was conducted with a DGI-TAUP301L yeast cell expressing the mutant TAU-P301L protein under the control of GAL1 promoter and containing the ER stress sensor reporter plasmid with GFP as reporter, described above in the “Construction of the ER sensor reporter plasmid” section. […] The resulting fluorescent signal was normalised to cell density and the normalised fluorescence was used as a direct measure of ER stress level in the cells.
A commercial library containing 50 080 small molecules was screened along with 5 dipeptide molecules from an academic collaboration and 208 extracts from a proprietary natural extract collection. Active compounds, with the potential to modulate the deleterious effects of TAU-P301L expression, were identified by their ability to decrease normalised fluorescence, without influencing growth. Growth was determined by measuring optical density (OD) of a culture.
DGI-TAUP301L cells were dispensed into 96-well plates on minimum medium containing 2% galactose to fully express the mutant protein, together with 10 μM candidate compound. All liquid handing steps were performed using a Janus Automated Workstation (Perkin Elmer). Plates were incubated for 2 days at 30° C. under shaking in a Liconic STX40 Automated Incubator. Growth and fluorescence were monitored with a Victor 3V microplate reader (PE). […]
(§1) DGI-TAUP301L cells were pre-grown on a mixture of 2% galactose until reaching early exponential phase (OD=1-2). […] Growth and fluorescence were monitored for 2 days at 30° C. under agitation. […]
as §1, §1, §1

Compound: C[N+](C)(C)CCO [Choline, choline]
- reduction of ER stress (0.4 M choline): 35%

Compound: C[S+](C)[O-] [DMSO]
- reduction of ER stress (2% DMSO): 35%

Compound: O=C(/C=C/c1ccccc1)NC(NC(=S)Nc1cccc2cccnc12)C(Cl)(Cl)Cl (stereo not drawn) [salubrinal]
- reduction of ER stress signal (100 μM salubrinal): ~50%
